# Results reported in patent US3948967A, “Aryl urea carbonates” (Velsicol Chemical Corporation, priority 1974, dated 1976).
# Legend:
# Format in all cases: in vivo
# [1] = test system: California barnyardgrass; experiment: pre-emergence herbicidal activity, greenhouse pots; settings: 8 lb. per acre, 15 to 21 days, scale 0 = no injury to 10 = death
# Description: (§1) In these experiments small plastic greenhouse pots filled with dry soil were seeded with California barnyardgrass, crabgrass, dock, downybrome, foxtail, Johnson grass, mustard weed, pigweed and velvetleaf. Twenty-four hours or less after seeding the pots were sprayed with water until the soil was wet and the test compounds formulated as aqueous emulsions of acetone solutions containing emulsifiers were sprayed at the rate of 8 lb. per acre on the surface of the soil.
# (§2) After spraying, the soil containers were placed in the greenhouse and provided with supplementary heat as required and daily or more frequent watering. The plants were maintained under these conditions for a period of from 15 to 21 days, at which time the condition of the plants and the degree of injury to the plants was rated on a scale of from 0 to 10, as follows: 0 = no injury, 1,2 = slight injury, 3,4 = moderate injury, 5,6 = moderately severe injury, 7,8,9 = severe injury and 10 = death.
# [2] = test system: Crabgrass; experiment: pre-emergence herbicidal activity, greenhouse pots; settings: 8 lb. per acre, 15 to 21 days, scale 0 = no injury to 10 = death
# Description: as §1, §2
# [3] = test system: Dock; experiment: pre-emergence herbicidal activity, greenhouse pots; settings: 8 lb. per acre, 15 to 21 days, scale 0 = no injury to 10 = death
# Description: as §1, §2
# [4] = test system: Downybrome; experiment: pre-emergence herbicidal activity, greenhouse pots; settings: 8 lb. per acre, 15 to 21 days, scale 0 = no injury to 10 = death
# Description: as §1, §2
# [5] = test system: Foxtail; experiment: pre-emergence herbicidal activity, greenhouse pots; settings: 8 lb. per acre, 15 to 21 days, scale 0 = no injury to 10 = death
# Description: as §1, §2
# [6] = test system: Johnson grass; experiment: pre-emergence herbicidal activity, greenhouse pots; settings: 8 lb. per acre, 15 to 21 days, scale 0 = no injury to 10 = death
# Description: as §1, §2
# [7] = test system: Mustard; experiment: pre-emergence herbicidal activity, greenhouse pots; settings: 8 lb. per acre, 15 to 21 days, scale 0 = no injury to 10 = death
# Description: as §1, §2
# [8] = test system: Pigweed; experiment: pre-emergence herbicidal activity, greenhouse pots; settings: 8 lb. per acre, 15 to 21 days, scale 0 = no injury to 10 = death
# Description: as §1, §2
# [9] = test system: Velvetleaf; experiment: pre-emergence herbicidal activity, greenhouse pots; settings: 8 lb. per acre, 15 to 21 days, scale 0 = no injury to 10 = death
# Description: as §1, §2
# [10] = test system: California barnyardgrass; experiment: post-emergence herbicidal activity, foliage spray; settings: 8 lb. per acre on foliage, 10 to 15 days, scale 0 = no injury to 10 = death
# Source text: as §2
# (§3) In these experiments the compounds to be tested were formulated as aqueous emulsions and sprayed at the rate of 8 lb. per acre on the foliage of California barnyardgrass, crabgrass, dock, downybrome, foxtail, Johnson grass, mustard weed, pigweed and velvetleaf that had attained a prescribed size. After spraying the plants were placed in a greenhouse and watered daily or more frequently. Water was not applied to the foliage of the treated plants. The severity of the injury was determined 10 to 15 days after treatment and was rated on the scale of from 0 to 10 heretofore described.
# [11] = test system: Crabgrass; experiment: post-emergence herbicidal activity, foliage spray; settings: 8 lb. per acre on foliage, 10 to 15 days, scale 0 = no injury to 10 = death
# Source text: as §2, §3
# [12] = test system: Dock; experiment: post-emergence herbicidal activity, foliage spray; settings: 8 lb. per acre on foliage, 10 to 15 days, scale 0 = no injury to 10 = death
# Source text: as §2, §3
# [13] = test system: Downybrome; experiment: post-emergence herbicidal activity, foliage spray; settings: 8 lb. per acre on foliage, 10 to 15 days, scale 0 = no injury to 10 = death
# Source text: as §2, §3
# [14] = test system: Foxtail; experiment: post-emergence herbicidal activity, foliage spray; settings: 8 lb. per acre on foliage, 10 to 15 days, scale 0 = no injury to 10 = death
# Source text: as §2, §3
# [15] = test system: Johnson grass; experiment: post-emergence herbicidal activity, foliage spray; settings: 8 lb. per acre on foliage, 10 to 15 days, scale 0 = no injury to 10 = death
# Source text: as §2, §3
# [16] = test system: Mustard; experiment: post-emergence herbicidal activity, foliage spray; settings: 8 lb. per acre on foliage, 10 to 15 days, scale 0 = no injury to 10 = death
# Source text: as §2, §3
# [17] = test system: Pigweed; experiment: post-emergence herbicidal activity, foliage spray; settings: 8 lb. per acre on foliage, 10 to 15 days, scale 0 = no injury to 10 = death
# Source text: as §2, §3
# [18] = test system: Velvetleaf; experiment: post-emergence herbicidal activity, foliage spray; settings: 8 lb. per acre on foliage, 10 to 15 days, scale 0 = no injury to 10 = death
# Source text: as §2, §3
# [19] = test system: leaf rust on wheat, Puccinia rubigo-vera; experiment: control of leaf rust on wheat (soil watering); settings: about 25 cc. soil watering, rated 7 to 10 days after inoculation vs untreated
# Description: The fungicidal utility of the compounds of this invention was illustrated by experiments carried out for the control of leaf rust on wheat, Puccinia rubigo-vera. In these experiments wheat plants were grown in soil until they were about 2-21/2 inches tall. The soil in which the plants were growing was then watered with about 25 cc. of a solution of the chemical in water. The plants were then placed in the greenhouse for about five days and inoculated with leaf rust spores by dusting the spores from diseased plants. After 7 to 10 days the growth of the fungus on the plants was measured and rated in comparison with plants inoculated but otherwise untreated.
Compound,"Injury Rating, Pre-Emergence [1]","Injury Rating, Pre-Emergence [2]","Injury Rating, Pre-Emergence [3]","Injury Rating, Pre-Emergence [4]","Injury Rating, Pre-Emergence [5]","Injury Rating, Pre-Emergence [6]","Injury Rating, Pre-Emergence [7]","Injury Rating, Pre-Emergence [8]","Injury Rating, Pre-Emergence [9]","Injury Rating, Post-Emergence [10]","Injury Rating, Post-Emergence [11]","Injury Rating, Post-Emergence [12]","Injury Rating, Post-Emergence [13]","Injury Rating, Post-Emergence [14]","Injury Rating, Post-Emergence [15]","Injury Rating, Post-Emergence [16]","Injury Rating, Post-Emergence [17]","Injury Rating, Post-Emergence [18]",% Control ([19]; 200 ppm actual compound) [%],% Control ([19]; 1000 ppm actual compound) [%]
"CCOC(=O)ON(C(=O)NC)c1ccc(Cl)c(Cl)c1 [Example 2, 1-(3,4-Dichlorophenyl)-1-ethoxycarbonyloxy-3-methylurea]",10,10,9,9,10,8,10,10,10,10,10,9,10,10,8,10,10,10,100,–
"CCOC(=O)ON(C(=O)NC)c1cc(Cl)ccc1Cl [Example 3, 1-(2,5-Dichlorophenyl)-1-ethoxycarbonyloxy-3-methylurea]",–,–,–,–,–,–,–,–,–,–,–,–,–,–,–,–,–,–,–,95
"CNC(=O)N(OC(=O)OC)c1ccc(Cl)c(Cl)c1 [Example 1, 1-(3,4-Dichlorophenyl)-1-methoxycarbonyloxy-3-methylurea]",9.5,10,9.5,9,10,9,10,10,10,10,10,8,10,10,8,10,10,10,100,–
